The results in this text go back to patent US9944654B2, “Nargenicin compounds and uses thereof as antibacterial agents” (priority 2014, dated 2018).

Assay [1] addresses T1, E. coli DnaE (DNA polymerase III α-subunit from Escherichia coli) (Escherichia coli, UniProt P10443).
T1 construct: EcDnaE (E. coli DnaE residues 1-1160); 6xHis (N); made in house; host or cells: E. coli BL21(DE3)
Put plainly: In vitro DnaE single enzyme assay (E. coli). Format: biochemical. On the procedure: (§1) Plasmids encoding EcDnaE (E. coli DnaE residues 1-1160) and SaDnaE (S. aureus DnaE residues 1-1065) with 6×His N-terminal tags, were overexpressed in BL21(DE3) and BL21-AI cells (Invitrogen), respectively. Cells were grown in LB media to an OD ˜0.45 pelleted and then resuspended in Minimal Media, as described in Pryor et al. (1997, Protein Expr Purif. 10:309-19), and inducer (0.4 mM IPTG or 0.2% arabinose) for 21 hours at 18° C. at 220 rpm. Cells were then harvested, frozen for 20 minutes at −80° C. and thawed. Pellets were resuspended in 1× Talon buffer (50 mM Sodium Phosphate, 300 mM Sodium Chloride, pH 7.4) +10% glycerol +Roche PI's (-EDTA). Cells were lysed with two passes through a French press, then centrifuged for 45 minutes at 40,000 rpm (70Ti, Beckman). Supernatant was bound to 5 mL TALON resin (CLONTECH) for 1 hour at room temperature on Nutator. TALON resin was washed with 10 mM imidizole, and DnaE was eluted with 250 mM imidizole. Eluate was concentrated and run on a size exclusion column (SEC200, GE Healthcare) in the following buffer; 25 mM HEPES, 30 mM NaCl,1 mM CaCl2, 5% glycerol, pH 7.9. Pool SEC fractions based on SDS-PAGE run, aliquot, freeze, and store at -80° C.
(§2) DnaE was diluted in 50 mM potassium phosphate pH 7.5, 5 mM BME, 10% glycerol and 200 mM NaCl prior to use.
(§3) The purpose of the DnaE single enzyme assay is to determine the ability of compounds to inhibit the DNA polymerase III α-subunit homolog from Staphylococcus aureus or the α-subunit from Escherichia coli without the other components of the replication machinery. The DnaE single enzyme assay was a modified version of the method, Standard Pol III Assay Using Activated DNA and Four dNTPs, described by Butler et al., 2008, Methods in Molecular Medicine: New Antibiotic Targets 142:25-36. Briefly, in 96-well plates, enzyme was added to a mixture containing 30 mM Tris-HCl pH 7.5, 20% glycerol, 4 mM DTT, 10 mM Mg acetate, 0.025 mM dATP, 0.025 mM dGTP, 0.025 mM dc:TP, 0.011 mM ^3H-dTTP 1 mCi/ml (Perkin-Elmer), and 0.298 mg/mL Dnase I (Sigma) treated “activated” Calf Thymus DNA (Worthington Biochemical). The assay was set up so that 5 μl of compound was distributed to the plates, 90 μl of reaction mix was added to the compound, and 5 μl of enzyme was added to start the reaction. Assays were initiated by the addition of 0.8 μg/ml E. coli or 0.05 μg/ml S. aureus DnaE, incubated for 30 min at 30° C., and terminated by the addition of a 20% trichloroacetic acid and 0.2% sodium pyrophosphate solution. Precipitated labeled DNA was collected on Glass-fiber Filtermat A using Micro96 Harvester, and the filters were washed, dried, and counted in a Microbeta Trilux (Perkin Elmer). Serial dilutions of compounds (in DMSO) were added to the plates before enzyme addition.

Assay [2] addresses T2, S. aureus DnaE (DNA polymerase III α-subunit homolog from Staphylococcus aureus) (Staphylococcus aureus, UniProt Q5HF71).
T2 construct: SaDnaE (S. aureus DnaE residues 1-1065); 6xHis (N); made in house; host or cells: E. coli BL21-AI
T2 sequence (Q5HF71 1-1065): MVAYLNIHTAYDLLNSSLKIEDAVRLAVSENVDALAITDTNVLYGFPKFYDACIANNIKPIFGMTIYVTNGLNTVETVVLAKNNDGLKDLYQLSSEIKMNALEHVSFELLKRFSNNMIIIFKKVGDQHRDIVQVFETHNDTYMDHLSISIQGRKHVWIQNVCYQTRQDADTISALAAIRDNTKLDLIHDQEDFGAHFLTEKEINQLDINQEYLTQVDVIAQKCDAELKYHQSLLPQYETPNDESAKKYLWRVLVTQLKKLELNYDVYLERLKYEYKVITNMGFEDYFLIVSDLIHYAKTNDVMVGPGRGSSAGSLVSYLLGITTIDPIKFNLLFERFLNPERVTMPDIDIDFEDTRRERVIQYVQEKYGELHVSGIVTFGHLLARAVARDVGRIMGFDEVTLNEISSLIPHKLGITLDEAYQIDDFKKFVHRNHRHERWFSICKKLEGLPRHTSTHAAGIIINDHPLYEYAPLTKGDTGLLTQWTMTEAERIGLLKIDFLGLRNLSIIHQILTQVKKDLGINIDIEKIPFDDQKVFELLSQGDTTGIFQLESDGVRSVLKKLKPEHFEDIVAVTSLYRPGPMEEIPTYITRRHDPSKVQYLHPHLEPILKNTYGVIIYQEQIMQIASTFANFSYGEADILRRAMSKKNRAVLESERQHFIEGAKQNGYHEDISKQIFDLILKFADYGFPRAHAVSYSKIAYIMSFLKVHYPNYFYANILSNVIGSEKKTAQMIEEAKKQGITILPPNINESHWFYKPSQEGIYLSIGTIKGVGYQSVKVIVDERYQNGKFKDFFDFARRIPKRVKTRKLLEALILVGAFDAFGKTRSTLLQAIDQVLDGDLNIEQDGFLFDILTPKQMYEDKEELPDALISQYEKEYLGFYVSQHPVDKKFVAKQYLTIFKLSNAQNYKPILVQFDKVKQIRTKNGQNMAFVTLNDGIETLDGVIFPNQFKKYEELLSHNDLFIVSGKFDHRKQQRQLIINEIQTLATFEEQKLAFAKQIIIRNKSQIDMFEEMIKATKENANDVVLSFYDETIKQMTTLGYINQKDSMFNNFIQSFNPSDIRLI
The assay is described as follows: biochemical. The conditions noted are these: for IC50: S. aureus DnaE IC50. Format: biochemical. Here is the method:
as §1, §2, §3

Assay [3] concerns Escherichia coli MB5747 (LS 883, tolC). The assay is described as follows: microbe, parasite or virus in culture. Format: cell-based. The following applies: * = some reduction of growth versus control at […]; for MIC: Escherichia coli, read-out: E. coli LS883 tolC (MIC), MHII broth.
Assay [4] has as its system Pseudomonas aeruginosa MB5890 (CB1101, efflux-deleted). Put plainly: microbe, parasite or virus in culture. Format: cell-based. The following applies: * = some reduction of growth versus control at […]; for MIC: Pseudomonas aeruginosa, read-out: P. aeruginosa MB5890 efflux-del (MIC), MHII broth.
The subject of assay [5] is Staphylococcus aureus MB6266 (MRSA COL). The assay is described as follows: Nargenicin antibacterial assay (MIC), S. aureus. Type of assay: cell-based. The conditions noted are these: * = some reduction of growth versus control at […]; for MIC: Staphylococcus aureus, MRSA, read-out: S. aureus COL (MIC), MHII broth + 50% human serum.
Assay [6] concerns Streptococcus pneumoniae MB6357 (CL 2883). Put plainly: Nargenicin antibacterial assay (MIC), S. pneumoniae. The following applies: * = some reduction of growth versus control at […]; for MIC: Streptococcus pneumoniae, read-out: S. pneumoniae MB2883 (MIC), Isosensitest broth. Type of assay: cell-based.
Where [7] appears, read: read-out: E. coli DnaE IC50 (converted).

The structures appear in SMILES notation. ≈ marks a conversion by molar mass, not a printed value. Read-outs that look alike come from different tables or passages of the source.

T1 sequence (P10443 whole entry, the tested form may be a part): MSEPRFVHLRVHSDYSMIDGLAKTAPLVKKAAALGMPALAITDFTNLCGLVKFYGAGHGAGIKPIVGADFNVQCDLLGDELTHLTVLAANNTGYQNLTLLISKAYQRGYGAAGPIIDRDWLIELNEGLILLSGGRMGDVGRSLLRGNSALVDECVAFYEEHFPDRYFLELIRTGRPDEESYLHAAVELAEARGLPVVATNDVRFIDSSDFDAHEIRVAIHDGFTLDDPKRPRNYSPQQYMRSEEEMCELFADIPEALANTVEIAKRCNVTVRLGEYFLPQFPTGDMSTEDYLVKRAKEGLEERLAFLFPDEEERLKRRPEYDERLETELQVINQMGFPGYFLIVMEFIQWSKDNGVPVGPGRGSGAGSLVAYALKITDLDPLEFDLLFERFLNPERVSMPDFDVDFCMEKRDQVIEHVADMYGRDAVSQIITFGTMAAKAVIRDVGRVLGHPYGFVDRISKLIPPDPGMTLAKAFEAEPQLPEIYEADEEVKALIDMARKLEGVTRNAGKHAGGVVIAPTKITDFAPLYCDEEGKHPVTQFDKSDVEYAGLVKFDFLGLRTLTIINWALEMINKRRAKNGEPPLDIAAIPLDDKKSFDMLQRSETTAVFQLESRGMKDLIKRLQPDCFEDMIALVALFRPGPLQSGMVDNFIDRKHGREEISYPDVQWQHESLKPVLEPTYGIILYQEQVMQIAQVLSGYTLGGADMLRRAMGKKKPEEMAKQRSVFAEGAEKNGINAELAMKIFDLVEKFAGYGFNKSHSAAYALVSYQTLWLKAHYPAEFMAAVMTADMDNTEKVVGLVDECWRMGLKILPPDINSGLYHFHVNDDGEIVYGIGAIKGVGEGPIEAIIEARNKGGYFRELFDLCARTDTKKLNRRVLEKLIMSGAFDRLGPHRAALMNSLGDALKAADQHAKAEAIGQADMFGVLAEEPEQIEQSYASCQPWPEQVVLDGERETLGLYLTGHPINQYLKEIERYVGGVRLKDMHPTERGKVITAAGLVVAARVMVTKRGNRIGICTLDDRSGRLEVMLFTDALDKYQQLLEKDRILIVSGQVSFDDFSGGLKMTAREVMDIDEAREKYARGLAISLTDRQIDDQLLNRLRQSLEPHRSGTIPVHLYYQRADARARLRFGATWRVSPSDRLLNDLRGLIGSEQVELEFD

For the compound `CO[C@H]1C[C@H]2C=CC3C4[C@H](O)[C@@H](C)[C@@H](OC(=O)c5cc(-c6cccnc6)c[nH]5)[C@@H]3O[C@]42/C(C)=C/[C@@H](C)[C@@H]([C@@H](C)O)OC1=O` [Example 164, (3R,4S,7S,8aS,11R,12R,13R,14R,14bS,E)-14-hydroxy-4-((R)-1-hydroxyethyl)-7-methoxy-1,3,13-trimethyl-6-oxo-3,4,6,7,8,8a,10a,11,12,13,14,14a-dodecahydro-11,14b-epoxynaphtho[2,1-e]oxecin-12-yl 4-(pyridin-3-yl)-1H-pyrrole-2-carboxylate], the IC50 in assay [1] (E. coli DnaE IC50) is greater than 169 µM; in assay [2], 10.1 µM. Further, the MIC is 16 µg/mL (≈ 27 µM) in assay [3], greater than 128 µg/mL in assay [4], greater than 128 µg/mL in assay [5] and 32 µg/mL (≈ 54 µM) in assay [6].

In the case of `CO[C@H]1C[C@H]2C=C[C@H]3[C@H]4O[C@]2(/C(C)=C/[C@@H](C)[C@@H]([C@@H](C)O)OC1=O)[C@@H]3[C@H](O)[C@@H](C)[C@H]4OC(=O)c1cc(Br)c[nH]1` [Example 46], the half-inhibitory concentration (IC50) in assay [1] (setting [7]) was 16.8 µM; in assay [2], 0.0151 µM. The MIC amounted to 2 µg/mL (≈ 3.36 µM) in assay [3], 128 µg/mL (≈ 215 µM) in assay [4], 8 µg/mL in assay [5] and 64 µg/mL (≈ 108 µM) in assay [6].

Take `CO[C@H]1C[C@H]2C=C[C@H]3[C@H]4O[C@]2(/C(C)=C/[C@@H](C)[C@@H]([C@@H](C)OC(=O)CCl)OC1=O)[C@@H]3[C@H](O)[C@@H](C)[C@H]4OC(=O)c1ccc[nH]1` [Example 59]: the half-inhibitory concentration (IC50) is 16.9 µM in assay [1] (setting [7]) and less than 0.0101 µM in assay [2]. In addition, the MIC was determined as 0.25 µg/mL (≈ 0.422 µM) in assay [3], 16 µg/mL (≈ 27 µM) in assay [4], 0.25 µg/mL in assay [5] and 64 µg/mL (≈ 108 µM) in assay [6].

Regarding `CO[C@H]1C[C@H]2C[C@@H](O)[C@H]3[C@H]4O[C@]2(/C(C)=C/[C@@H](C)[C@@H]([C@@H](C)O)OC1=O)[C@@H]3[C@H](O)[C@@H](C)[C@H]4OC(=O)c1ccc[nH]1` [Example 194], the concentration for half-maximal inhibition (IC50) was greater than 187 µM in assay [1] (setting [7]) and 9.37 µM in assay [2]. Also, the MIC is 128 µg/mL (≈ 240 µM) in assay [3], greater than 128 µg/mL in assay [4], greater than 128 µg/mL in assay [5] and greater than 128 µg/mL in assay [6].

`C=C1C[C@@H]2C[C@H](OC)C(=O)O[C@H]([C@@H](C)O)[C@H](C)/C=C(\C)[C@]23O[C@H]2[C@H](OC(=O)c4ccc[nH]4)[C@H](C)[C@@H](O)[C@@H]3[C@@H]12` [Example 200]: the IC50 was greater than 189 µM in assay [1] (setting [7]) and 0.0113 µM in assay [2]. The MIC in assay [3] is 2 µg/mL (≈ 3.78 µM); in assay [4], 64 µg/mL (≈ 121 µM); in assay [5], 8 µg/mL; in assay [6], 128 µg/mL (≈ 242 µM).

On to `CO[C@H]1CC2C=C[C@H]3[C@H]4O[C@]2(/C(C)=C/[C@@H](C)[C@@H]([C@@H](C)OC(=O)OC2CCC(O)CC2)OC1=O)[C@@H]3[C@H](O)[C@@H](C)[C@H]4OC(=O)c1ccc[nH]1` (single isomer, unassigned) [Example 34], for which the IC50 is 106 µM in assay [1] (setting [7]) and 0.0106 µM in assay [2]. The MIC in assay [3] is 32 µg/mL (≈ 48.7 µM); in assay [4] it was greater than 128 µg/mL; in assay [5], 32 µg/mL; in assay [6] it was 64 µg/mL (≈ 97.3 µM).

With `CO[C@H]1C[C@H]2C=CC3C4[C@H](O)[C@@H](C)[C@@H](OC(=O)c5ccc[nH]5)[C@@H]3O[C@]42/C(C)=C/[C@@H](C)[C@@H]([C@@H](C)OC(=O)C(=O)OCc2cncn2C)OC1=O.O=C(O)C(F)(F)F` [Example 207], the values for the half-inhibitory concentration (IC50) in assay [1] (setting [7]) and in assay [2] were 3.27 µM and less than 0.00754 µM, respectively. The MIC in assay [3] was 4 µg/mL; in assay [4], 64 µg/mL; in assay [5], 4 µg/mL; in assay [6] it was greater than 64 µg/mL.

Consider `COCCNC(=O)C(=O)O[C@H](C)[C@H]1OC(=O)[C@@H](OC)C[C@H]2C=CC3C4[C@H](O)[C@@H](C)[C@@H](OC(=O)c5ccc[nH]5)[C@@H]3O[C@]42/C(C)=C/[C@H]1C` [Example 119], for which, in assay [1], the “E. coli DnaE IC50” value was determined as 11 µg/mL. Further, in assay [2], the “S. aureus DnaE IC50” value turned out to be 0.0012 µg/mL. Also, in assay [3] (MHII broth), the “E. coli LS883 tolC (MIC)” value stood at 0.25 µg/mL. Also, in assay [4] (MHII broth), the “P. aeruginosa MB5890 efflux-del (MIC)” value amounted to 8 µg/mL. The “S. aureus COL (MIC)” value in assay [5] (MHII broth + 50% human serum) is no more than 0.125 µg/mL. Besides, in assay [6] (Isosensitest broth), the “S. pneumoniae MB2883 (MIC)” value is >128* μg/mL.

Regarding `CO[C@H]1C[C@H]2C=C[C@H]3[C@H]4O[C@]2(/C(C)=C/[C@@H](C)[C@@H]([C@@H](C)OC(=O)NC(C)(CO)CO)OC1=O)[C@@H]3[C@H](O)[C@@H](C)[C@H]4OC(=O)c1ccc[nH]1` [Example 21], the IC50 in assay [1] (setting [7]) was greater than 155 µM; in assay [2], less than 0.00928 µM. In addition, the MIC stood at 8 µg/mL (≈ 12.4 µM) in assay [3], 128 µg/mL (≈ 198 µM) in assay [4], 16 µg/mL in assay [5] and 128 µg/mL (≈ 198 µM) in assay [6].

Turning to `CO[C@H]1C[C@H]2C=CC3C4[C@H](O)[C@@H](C)[C@@H](OC(=O)c5ccc[nH]5)[C@@H]3O[C@]42/C(C)=C/[C@@H](C)[C@@H]([C@@H](C)OC(=O)C(=O)OCCN2CCCC2)OC1=O.O=C(O)C(F)(F)F` [Example 212], the half-maximal inhibitory concentration (IC50) in assay [1] (setting [7]) is 3.76 µM; in assay [2] it was less than 0.00751 µM. Besides, the MIC in assay [3] is 4 µg/mL; in assay [4], 128 µg/mL; in assay [5] it was 4 µg/mL; in assay [6] it was greater than 128 µg/mL.
